According to US20200276211A1, “COMPOUNDS FOR TREATING NEAR VISION DISORDERS” (VIEWPOINT THERAPEUTICS, INC., priority 2017, published 2020):
Like-named read-outs stand apart in the source and are kept apart here.

What was measured:
[1] = Chemical stability in PBS buffer; format: physicochemical
Experimental: 10 mM compound working solutions were made by adding 10 μL of a 50 mM DMSO stock solution in 40 μL methanol. To make 20 μM compound working solutions, 1 μL of a 10 mM stock solution is added to 499 μL of methanol. Internal standard and quenching solutions were prepared by dissolving 1 mg/mL of terfenadine or tolbutamide in appropriate amounts of DMSO. A quenching solution was prepared containing 25 ng/ml terfenadine plus 50 ng/ml tolbutamide by diluting both stock solutions together in a 1:1 mixture of methanol:acetonitrile. Phosphate buffered saline (PBS) solutions at pH5 and pH7 were prepared by adjusting the pH of stock PBS with concentrated hydrochloric acid. To tubes labeled with a pre-determined time point (0, 5, 15, 30, 60, 120 min) was added 2 μL of 20 μM compound working solution. In each tube, 38 μL of PBS buffer was added to the vial, vortexed, and incubated at 37° C. for the corresponding time. After incubation, 300 μL of the quenching solution containing internal standard was added to the tube and vortexed to mix. The sample was centrifuged at 4000 rpm for 15 min, and 100 μL of supernatant transferred to a 0.65 ml tube for LC/MS analysis. Each compound and timepoint was analyzed by reverse phase HPLC with MS detection performed using a Sciex API 4500 Qtrap.

[2] = molecular target: T1, recombinant alpha-crystallin core domain (ACD) of cryAB protein (residues 68-153) (Homo sapiens, UniProt P02511); test: Differential scanning fluorimetry (DSF), protein thermal stability change; format: binding; conditions: SYPRO orange
T1 construct: alpha-crystallin core domain (ACD) of cryAB protein (residues 68-153)
T1 sequence (P02511 68-153): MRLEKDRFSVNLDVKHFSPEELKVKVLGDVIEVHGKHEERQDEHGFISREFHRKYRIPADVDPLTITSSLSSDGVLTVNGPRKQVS
Experimental: 2.4 μL of 10 mM compound stocks in DMSO were added to the wells of a 96-well plate containing 51.6 μL of 7 μM recombinant alpha-crystallin core domain (ACD) of cryAB protein (residues 68-153) in DSF buffer (50 mM Tris-HCl, 100 mM NaCl, 0.5 mM ZnCl2, 0.5 mM MgCl2, 0.5 mM CaCl2, pH8.0), and subsequently 6 μL 10× SYPRO orange protein gel stain (Invitrogen) was added for a final volume of 60 μL per well. Each well was mixed, and then 10 μL was added in quadruplicates to a MicroAmp Optical 384-well reaction plate with barcode (ThermoFisher). The plate was sealed with a MicroAmp Optical adhesive film (ThermoFisher), centrifuged at 1,000×g for 2 min, and loaded into a QuantStudio 6 Flex real-time PCR system (Applied Biosystems). The DSF assay was performed by heating the plate from 30° C. to 80° C. with 0.5° C. increments per cycle over 100 cycles. Each cycle was held for 90 s after reaching the temperature, and the fluorescent signal (520 nm excitation/558 nm emission) was measured.
The data curve was fitted using a Boltzmann model (GraphPad Prism Version 7) for a fitting range from 25° C. to the temperature at which the fluorescence signal was highest plus 3-5° C. The Tm was determined to be the temperature at the midpoint between the highest and lowest fluorescent signals on the curve. Results of the assay for compounds 1.18, 1.21 and 1.25 are in the following table and FIG. 1.

[3] = Solubility remark in amyloid disaggregation assay; format: physicochemical; conditions: assay solution, 5% DMSO
Experimental: The procedure used to evaluate disassembly of amyloids in ex vivo cataractous solutions was adapted from Chemerovski-Glikman et al., Scientific Reports 8, Article number: 9341 (2018). Nuclear and cortical lens tissue from human donors (92F, 96M) was homogenized in PBS with protease inhibitor for 60 seconds on ice. The protein concentration of the lysate was measured by Bicinchoninic Acid Assay (Pierce BCA Protein Assay Kit, ThermoFisher), and then the lysate was diluted to a total protein concentration of 0.075 mg/mL. Thioflavin T dye (Sigma-Aldrich) was added to a final concentration of 1 μM. […] After incubation with orbital shaking at 37° C., the fluorescence was read every two hours for 94 hours at an excitation wavelength of 440 nm and emission wavelength of 485 nm. Results of the assay for compounds 1.18, 1.21, 1.25 or control are in FIG. 3.

[4] = Plasma stability (rabbit); format: in vitro ADME; conditions: 37° C., read-out: Plasma stability (rabbit) t ½
Experimental: (§1) A 4 mM compound stock solution was prepared by dissolving the appropriate amount of compound in MeOH, then a […] was prepared by adding 2 μL aforementioned 4 mM stock solution in 78 μL DMSO. A 10 mM control stock solution was prepared by dissolving the appropriate amount of tetracaine in DMSO, then a 10 μM control working solution was prepared by diluting the stock in DMSO. A 1 mg/ml terfenadine mixed with 2 mg/mL tolbutamide stock solution was prepared by dissolving an appropriate amount of each in DMSO, then a 1 ng/mL terfenadine mixed with 2 ng/mL tolbutamide internal standard solution was prepared by diluting the stock solution in methanol:acetonitrile (1:1, v/v). Both stock and internal standard solutions were stored at 4° C. Whole blood was centrifuged (obtained from in life group or donors) at 4000 rpm at 4° C. for 15 min to obtain plasma. Plasma was stored at −80° C. for future use. Before use, plasma was pre-warmed at 37° C. in a water bath for 15 min (500 μL per compound or control). After warming, 5 μL compound or control was added into 495 μL plasma, then vortexed to mix. […] The MS detection was performed using a Sciex API 4000 Qtrap and 6500 Plus instrument, and each compound was analyzed by reverse phase HPLC.

Plasma stability (human) = format: in vitro ADME; conditions: 37° C., read-out: Plasma stability (human) t ½
Experimental: as §1

[5] = in water; cited from earlier work
[6] = PBS pH 5, 37° C., read-out: Chem stability (t ½ @ pH = 5)
[7] = PBS pH 7, 37° C., read-out: Chem stability (t ½ @ pH = 7)

| SMILES | half-life at 1 µM [1, 6] | half-life at 1 µM [1, 7] | Δ Tm (° C.) Mean (n = 2) [2] | solubility (in words) [3] | half-life at 0.1 µM [4] | half-life at 0.1 µM (Plasma stability (human)) | aqueous solubility [5] |
| --- | --- | --- | --- | --- | --- | --- | --- |
| C[C@H](CCCC(C)(C)O)[C@H]1CC[C@H]2[C@@H]3CC=C4C[C@@H](OC(=O)CCC(=O)O)CC[C@]4(C)[C@H]3CC[C@]12C [Compound 1.18] | > 8.33 h | > 8.33 h | −5.7 °C | limited solubility | > 8.33 h | > 8.33 h |  |
| C[C@H](CCCC(C)(C)O)[C@H]1CC[C@H]2[C@@H]3CC=C4C[C@@H](OC(=O)CC[C@H](N)C(=O)O)CC[C@]4(C)[C@H]3CC[C@]12C [Compound 1.21] |  |  | −1.7 °C |  |  |  |  |
| C[C@H](CCCC(C)(C)O)[C@H]1CC[C@H]2[C@@H]3CC=C4C[C@@H](OC(=O)OCC[N+](C)(C)C)CC[C@]4(C)[C@H]3CC[C@]12C.[I-] [Compound 1.25] | > 8.33 h | > 8.33 h | −1.8 °C |  | > 8.33 h | > 8.33 h |  |
| CC(C)CCC[C@@H](C)[C@H]1CC[C@H]2[C@@H]3CC=C4C[C@@H](O)CC[C@]4(C)[C@H]3CC[C@]12C [cholesterol] |  |  |  |  |  |  | less than 0.5 mg/100 mL |
